The values below come from patent publication US20110105509A1 (Wyeth, LLC, priority 2009, published 2011).

pIC50: −log10 of the molar value.

Usually pIC50 stands for the IC50 on a negative log10 scale, so that one unit is a factor of ten. A low value points to a high IC50.

The test concerns the target T1, CRTH2 (Homo sapiens, UniProt Q9Y5Y4).
T1 construct: expressed in transfected cells; host or cells: CHO cells
T1 sequence (Q9Y5Y4 1-395): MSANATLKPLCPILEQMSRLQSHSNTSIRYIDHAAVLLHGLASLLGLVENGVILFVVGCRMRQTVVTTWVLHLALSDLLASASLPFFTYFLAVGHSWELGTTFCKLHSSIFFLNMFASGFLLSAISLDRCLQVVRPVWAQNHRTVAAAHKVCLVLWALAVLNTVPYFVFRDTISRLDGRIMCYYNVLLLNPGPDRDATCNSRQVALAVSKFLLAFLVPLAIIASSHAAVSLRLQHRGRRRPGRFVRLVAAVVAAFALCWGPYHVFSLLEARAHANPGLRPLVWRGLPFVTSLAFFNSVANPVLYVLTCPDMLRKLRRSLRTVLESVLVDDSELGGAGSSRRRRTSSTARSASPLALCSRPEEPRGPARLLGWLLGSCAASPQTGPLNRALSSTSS
Nature of the test: FRET based competitive immunoassay (cAMP) in CRTH2 expressing CHO cells. The test is classed as cell-based. Conditions: CRTH2 expressing CHO cells incubated with forskolin and PGD2; Eu3+ cryptate-labeled anti-cAMP and d2-labeled cAMP. Here is the method:
FRET Assay: To evaluate potency compounds were tested in a FRET based competitive immunoassay in which CRTH2 expressing CHO cells were incubated in the presence of forskolin and PGD2 along with Eu3+ cryptate-labeled anti-cAMP and d2-labeled cAMP.
Regarding `Cc1c(-c2ccc(=O)n(C(C)C)n2)c2cc(Cl)cc(Cl)c2n1CC(=O)O` [Example 235, 2-(5,7-dichloro-3-(1-isopropyl-6-oxo-1,6-dihydropyridazin-3-yl)-2-methyl-1H-indol-1-yl)acetic acid], the pIC50 was 5.80.
For `Cc1c(-c2ccc(=O)n(Cc3ccccc3)n2)c2cc(F)cc(S(C)(=O)=O)c2n1CC(=O)O` [Example 236, 2-(3-(1-benzyl-6-oxo-1,6-dihydropyridazin-3-yl)-5-fluoro-2-methyl-7-(methyl-sulfonyl)-1H-indol-1-yl)acetic acid], the pIC50 was less than 6.00.
In the case of `Cc1c(-c2nn(Cc3ccccc3)c(=O)c3ccccc23)c2cc(F)cc(S(C)(=O)=O)c2n1CC(=O)O` [Example 237, 2-(3-(3-benzyl-4-oxo-3,4-dihydrophthalazin-1-yl)-5-fluoro-2-methyl-7-(methyl-sulfonyl)-1H-indol-1-yl)acetic acid] it was less than 6.00; in that of `Cc1c(Cc2ccc(=O)n(Cc3ccc(C(C)(C)O)cc3)n2)c2cc(F)ccc2n1CC(=O)O` [Example 238, 2-(5-fluoro-3-((1-(4-(2-hydroxypropan-2-yl)benzyl)-6-oxo-1,6-dihydropyridazin-3-yl)methyl)-2-methyl-1H-indol-1-yl)acetic acid], 7.89.
As for `Cc1c(Cc2ccc(=O)n(Cc3ccc(C(O)(C(F)(F)F)C(F)(F)F)cc3)n2)c2cc(F)ccc2n1CC(=O)O` [Example 239, 2-(5-fluoro-3-((1-(4-(1,1,1,3,3,3-hexafluoro-2-hydroxypropan-2-yl)benzyl)-6-oxo-1,6-dihydropyridazin-3-yl)methyl)-2-methyl-1H-indol-1-yl)acetic acid], the pIC50 is 8.15.
`Cc1c(Cc2ccc(=O)n(Cc3cccc(C(C)(C)O)c3)n2)c2cc(F)ccc2n1CC(=O)O` [Example 240, 2-(5-fluoro-3-((1-(3-(2-hydroxypropan-2-yl)benzyl)-6-oxo-1,6-dihydropyridazin-3-yl)methyl)-2-methyl-1H-indol-1-yl)acetic acid] had a pIC50 of 8.40.
The figure for `Cc1c(Cc2ccc(=O)n(Cc3ccc(F)cc3F)n2)c2cc(F)cc(F)c2n1CC(=O)O` [Example 242, 2-(3-((1-(2,4-difluorobenzyl)-6-oxo-1,6-dihydropyridazin-3-yl)methyl)-5,7-difluoro-2-methyl-1H-indol-1-yl)acetic acid] is 7.55.
Consider `Cc1c(-c2nn(Cc3ccccc3)c(=O)c3ccccc23)c2cc(F)cc(Cl)c2n1CC(=O)O` [Example 243, 2-(3-(3-benzyl-4-oxo-3,4-dihydrophthalazin-1-yl)-7-chloro-5-fluoro-2-methyl-1H-indol-1-yl)acetic acid], for which the negative logarithm of the IC50 (pIC50) is 7.48.
As to `Cc1c(-c2nn(Cc3ccccc3)c(=O)c3ccccc23)c2cc(F)cc(F)c2n1CC(=O)O` [Example 244, 2-(3-(3-benzyl-4-oxo-3,4-dihydrophthalazin-1-yl)-5,7-difluoro-2-methyl-1H-indol-1-yl)acetic acid], the pIC50 was 7.22.
The figure for `Cc1c(-c2nn(Cc3ccccc3)c(=O)c3ccccc23)c2cc(Cl)cc(Cl)c2n1CC(=O)O` [Example 245, 2-(3-(3-benzyl-4-oxo-3,4-dihydrophthalazin-1-yl)-5,7-dichloro-2-methyl-1H-indol-1-yl)acetic acid] is 6.23.
The figure for `Cc1c(-c2ccc(=O)n(Cc3ccccc3)n2)c2cccc(Br)c2n1CC(=O)O` [Example 246, 2-(3-(1-benzyl-6-oxo-1,6-dihydropyridazin-3-yl)-7-bromo-2-methyl-1H-indol-1-yl)-acetic acid] is less than 5.70.
Turning to `Cc1c(-c2cn(Cc3ccccc3)c(=O)c3ccccc23)c2ccccc2n1CC(=O)O` [Example 247, 2-(3-(2-benzyl-1-oxo-1,2-dihydroisoquinolin-4-yl)-2-methyl-1H-indol-1-yl)-acetic acid], the negative logarithm of the IC50 (pIC50) was 7.92.
In the case of `Cc1c(-c2cn(Cc3ccccc3)c(=O)c3ccccc23)c2cc(F)ccc2n1CC(=O)O` [Example 248, 2-(3-(2-benzyl-1-oxo-1,2-dihydroisoquinolin-4-yl)-5-fluoro-2-methyl-1H-indol-1-yl)acetic acid] it was 7.82; in that of `Cc1c(-c2cn(C(C)C)c(=O)c3ccccc23)c2cc(F)ccc2n1CC(=O)O` [Example 249, 2-(5-fluoro-3-(2-isopropyl-1-oxo-1,2-dihydroisoquinolin-4-yl)-2-methyl-1H-indol-1-yl)acetic acid], 8.30; in that of `Cc1c(-c2cn(CC(F)(F)F)c(=O)c3ccccc23)c2cc(F)ccc2n1CC(=O)O` [Example 250, 2-(5-fluoro-2-methyl-3-(1-oxo-2-(2,2,2-trifluoroethyl)-1,2-dihydroiso-quinolin-4-yl)-1H-indol-1-yl)acetic acid], 8.40.
`Cc1c(-c2cn(CC(F)(F)F)c(=O)c3ccccc23)c2ccccc2n1CC(=O)O` [Example 251, 2-(2-methyl-3-(1-oxo-2-(2,2,2-trifluoroethyl)-1,2-dihydroisoquinolin-4-yl)-1H-indol-1-yl)acetic acid] showed a pIC50 of 6.69.
The figure for `Cc1c(-c2cn(C(C)C)c(=O)c3ccccc23)c2ccccc2n1CC(=O)O` [Example 252, 2-(3-(2-isopropyl-1-oxo-1,2-dihydroisoquinolin-4-yl)-2-methyl-1H-indol-1-yl)acetic acid] is 7.92; for `COC(F)(F)Cn1cc(-c2c(C)n(CC(=O)O)c3ccccc23)c2ccccc2c1=O` [Example 253, 2-(3-(2-(2,2-difluoro-2-methoxyethyl)-1-oxo-1,2-dihydroisoquinolin-4-yl)-2-methyl-1H-indol-1-yl)acetic acid] it is 8.05; for `Cc1c(-c2cn(CC(C)(C)O)c(=O)c3ccccc23)c2cc(F)ccc2n1CC(=O)O` [Example 254, 2-(5-fluoro-3-(2-(2-hydroxy-2-methylpropyl)-1-oxo-1,2-dihydroisoquinolin-4-yl)-2-methyl-1H-indol-1-yl)acetic acid] it is 7.82.
The figure for `Cc1c(-c2cn(CC(O)(C(F)(F)F)C(F)(F)F)c(=O)c3ccccc23)c2cc(F)ccc2n1CC(=O)O` [Example 255, 2-(5-fluoro-2-methyl-3-(1-oxo-2-(3,3,3-trifluoro-2-hydroxy-2-(trifluoro-methyl)propyl)-1,2-dihydroisoquinolin-4-yl)-1H-indol-1-yl)acetic acid] is 7.26; for `Cc1c(-c2cn(CCCC(F)(F)F)c(=O)c3ccccc23)c2cc(F)ccc2n1CC(=O)O` [Example 256, (5-fluoro-2-methyl-3-(1-oxo-2-(4,4,4-trifluorobutyl)-1,2-dihydroisoquinolin-4-yl)-1H-indol-1-yl)acetic acid] it is 8.70.
The figure for `Cc1c(-c2cn(CC(C)(C)C)c(=O)c3ccccc23)c2cc(F)ccc2n1CC(=O)O` [Example 257, 2-(5-fluoro-2-methyl-3-(2-neopentyl-1-oxo-1,2-dihydroisoquinolin-4-yl)-1H-indol-1-yl)acetic acid] is 8.52.
Turning to `Cc1c(-c2nn(CC(N)=O)c(=O)c3ccccc23)c2cc(F)ccc2n1CC(=O)O` [Example 258, {3-[3-(2-amino-2-oxoethyl)-4-oxo-3,4-dihydrophthalazin-1-yl]-5-fluoro-2-methyl-1H-indol-1-yl}acetic acid], the pIC50 was 7.96.
In the case of `Cc1c(-c2nn(Cc3nnc[nH]3)c(=O)c3ccccc23)c2cc(Cl)ccc2n1CC(=O)O` [Example 259a, 2-(3-(3-((4H-1,2,4-triazol-3-yl)methyl)-4-oxo-3,4-dihydrophthalazin-1-yl)-5-chloro-2-methyl-1H-indol-1-yl)acetic acid] it was 7.21; in that of `Cc1nnc(Cn2nc(-c3c(C)n(CC(=O)O)c4ccc(Cl)cc34)c3ccccc3c2=O)[nH]1` [Example 259b, 2-(5-chloro-2-methyl-3-(3-((5-methyl-4H-1,2,4-triazol-3-yl)methyl)-4-oxo-3,4-dihydrophthalazin-1-yl)-1H-indol-1-yl)acetic acid], 7.59.
The figure for `Cc1c(-c2nn(CC(N)=O)c(=O)c3ccccc23)c2cc(Cl)ccc2n1CC(=O)O` [Example 259c, 2-(3-(3-(2-amino-2-oxoethyl)-4-oxo-3,4-dihydrophthalazin-1-yl)-5-chloro-2-methyl-1H-indol-1-yl)acetic acid] is 7.64; for `Cc1c(-c2ccc(=O)n(Cc3nnc[nH]3)n2)c2cc(F)ccc2n1CC(=O)O` [Example 260a, 2-(3-(1-((4H-1,2,4-triazol-3-yl)methyl)-6-oxo-1,6-dihydropyridazin-3-yl)-5-fluoro-2-methyl-1H-indol-1-yl)acetic acid] it is 5.47.
The molecule `Cc1nnc(Cn2nc(-c3c(C)n(CC(=O)O)c4ccc(F)cc34)ccc2=O)[nH]1` [Example 260b, 2-(5-fluoro-2-methyl-3-(1-((5-methyl-4H-1,2,4-triazol-3-yl)methyl)-6-oxo-1,6-dihydro-pyridazin-3-yl)-1H-indol-1-yl)acetic acid] gave a pIC50 of 5.78.
In the case of `Cc1c(-c2nn(Cc3ncnn3-c3ccccc3)c(=O)c3ccccc23)c2cc(F)ccc2n1CC(=O)O` [Example 261, 2-(5-fluoro-2-methyl-3-(4-oxo-3-((1-phenyl-1H-1,2,4-triazol-5-yl)methyl)-3,4-dihydrophthalazin-1-yl)-1H-indol-1-yl)acetic acid] it was 7.96; in that of `COc1ccc(C(=O)n2c(C)c(-c3ccc(=O)n(Cc4ccccc4)n3)c3cc(F)ccc32)cc1` [Example 262a, 2-benzyl-6-(5-fluoro-1-(4-methoxybenzoyl)-2-methyl-1H-indol-3-yl)-pyridazin-3(2H)-one], less than 5.00.
